In one assay the test system is DU-145. In words: MTT assay for cell cytotoxicity. The format is cell-based, human. The following applies: Homo sapiens, 72 h, at least three independent experiments, read-out: MTT assay (IC50 ± SD) DU-145. On the procedure:
(§1) All of synthesis compounds were evaluated cell cytotoxicity by using MTT colorimetric assay on PC-3 and DU-145 cell lines. DU-145 and PC-3 are human hormone-refractory (androgen-independent) prostatic cancer cell lines from American Type Culture Collection (HTB-81™, ATCC, Rockville, MD)^125 and Bioresource Collection and Research Center (60122, BCRC, Taiwan)^126, respectively. Two of the "classical" cell lines were cultivated in RPMI-1640 medium supplemented with 5% fetal bovine serum (v/v), 100 U/mL penicillin, and […] streptomycin. Approximately 2 x 10^3 cells were seeded into each well of a 96-well plate and incubated in 5% CO2 at 37 °C for 24 h. To evaluate the in vitro cytotoxicity, all the synthetic compounds were dissolved in DMSO, prepared immediately before the experiments and diluted into the complete medium before being added to each well of a 96-well plate. Each compound was then added to the culture medium for designated various concentrations (0.15, 0.5, 1.5, 5, 15 µM). After 72 h, an amount of 100 µL of MTT (1 mg/mL) was added to each well, and the samples were incubated at 37 °C for 4 h. After removing the MTT solution, 100 µL of DMSO was added to each well and incubated at 37 °C for another 20 mins. The absorbency at 560 nm was measured by using an ELISA reader.
(§2) Results are expressed as mean values of at least three independent experiments. The IC50 values of testing compounds were described in Table 1. Table1. Effects of 10-Chloro-12H-thiochromeno[2,3-c]quinolin -12-one derivatives on cytotoxicity by MTT assay.

The subject of a further assay is PC-3. Kind of assay: MTT assay for cell cytotoxicity. It counts as cell-based, human. The following applies: Homo sapiens, 72 h, at least three independent experiments, read-out: MTT assay (IC50 ± SD) PC-3. The protocol: as §1, §2
In a further assay the target is T1, TOP I (Homo sapiens, UniProt P11387).
T1 construct: purchased TopoGEN TG2005H
T1 sequence (P11387 1-765): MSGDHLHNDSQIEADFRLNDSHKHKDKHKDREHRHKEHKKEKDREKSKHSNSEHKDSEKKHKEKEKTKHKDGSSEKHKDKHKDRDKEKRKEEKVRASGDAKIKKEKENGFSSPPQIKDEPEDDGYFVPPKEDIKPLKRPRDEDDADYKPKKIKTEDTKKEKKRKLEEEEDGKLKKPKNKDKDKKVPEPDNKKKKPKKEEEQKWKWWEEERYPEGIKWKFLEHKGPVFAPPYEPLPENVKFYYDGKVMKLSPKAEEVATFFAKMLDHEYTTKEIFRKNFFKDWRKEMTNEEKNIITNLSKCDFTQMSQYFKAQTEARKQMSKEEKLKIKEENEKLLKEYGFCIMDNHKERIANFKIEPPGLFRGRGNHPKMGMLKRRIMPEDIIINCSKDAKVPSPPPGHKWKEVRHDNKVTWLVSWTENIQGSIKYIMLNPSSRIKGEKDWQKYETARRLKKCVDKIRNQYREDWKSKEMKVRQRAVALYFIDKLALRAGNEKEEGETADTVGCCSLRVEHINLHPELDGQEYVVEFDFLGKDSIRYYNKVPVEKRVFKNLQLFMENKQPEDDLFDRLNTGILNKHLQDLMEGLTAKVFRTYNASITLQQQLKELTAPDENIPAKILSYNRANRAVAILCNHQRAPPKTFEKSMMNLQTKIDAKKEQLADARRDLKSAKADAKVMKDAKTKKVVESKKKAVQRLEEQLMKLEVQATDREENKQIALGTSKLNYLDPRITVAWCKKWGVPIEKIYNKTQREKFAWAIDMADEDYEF
Kind of assay: Topoisomerase I activity assay (DNA relaxation catalyzed by TOP I). It counts as biochemical. The following applies: primary assay at 25 and/or 50 µM. On the procedure:
According to the cell cytotoxicity, compounds 5, 7, 8, 16, 19, N2, N7, N8, N9, N14-N19, and N25 were also selected for primary TOP I and II activities assays at 25 and/or 50 µM (Fig. 2-4).

For another assay, the target named is T2, TOP II (Homo sapiens, UniProt P11388).
T2 construct: purchased TopoGEN TG-2000H-1
T2 sequence (P11388 whole entry): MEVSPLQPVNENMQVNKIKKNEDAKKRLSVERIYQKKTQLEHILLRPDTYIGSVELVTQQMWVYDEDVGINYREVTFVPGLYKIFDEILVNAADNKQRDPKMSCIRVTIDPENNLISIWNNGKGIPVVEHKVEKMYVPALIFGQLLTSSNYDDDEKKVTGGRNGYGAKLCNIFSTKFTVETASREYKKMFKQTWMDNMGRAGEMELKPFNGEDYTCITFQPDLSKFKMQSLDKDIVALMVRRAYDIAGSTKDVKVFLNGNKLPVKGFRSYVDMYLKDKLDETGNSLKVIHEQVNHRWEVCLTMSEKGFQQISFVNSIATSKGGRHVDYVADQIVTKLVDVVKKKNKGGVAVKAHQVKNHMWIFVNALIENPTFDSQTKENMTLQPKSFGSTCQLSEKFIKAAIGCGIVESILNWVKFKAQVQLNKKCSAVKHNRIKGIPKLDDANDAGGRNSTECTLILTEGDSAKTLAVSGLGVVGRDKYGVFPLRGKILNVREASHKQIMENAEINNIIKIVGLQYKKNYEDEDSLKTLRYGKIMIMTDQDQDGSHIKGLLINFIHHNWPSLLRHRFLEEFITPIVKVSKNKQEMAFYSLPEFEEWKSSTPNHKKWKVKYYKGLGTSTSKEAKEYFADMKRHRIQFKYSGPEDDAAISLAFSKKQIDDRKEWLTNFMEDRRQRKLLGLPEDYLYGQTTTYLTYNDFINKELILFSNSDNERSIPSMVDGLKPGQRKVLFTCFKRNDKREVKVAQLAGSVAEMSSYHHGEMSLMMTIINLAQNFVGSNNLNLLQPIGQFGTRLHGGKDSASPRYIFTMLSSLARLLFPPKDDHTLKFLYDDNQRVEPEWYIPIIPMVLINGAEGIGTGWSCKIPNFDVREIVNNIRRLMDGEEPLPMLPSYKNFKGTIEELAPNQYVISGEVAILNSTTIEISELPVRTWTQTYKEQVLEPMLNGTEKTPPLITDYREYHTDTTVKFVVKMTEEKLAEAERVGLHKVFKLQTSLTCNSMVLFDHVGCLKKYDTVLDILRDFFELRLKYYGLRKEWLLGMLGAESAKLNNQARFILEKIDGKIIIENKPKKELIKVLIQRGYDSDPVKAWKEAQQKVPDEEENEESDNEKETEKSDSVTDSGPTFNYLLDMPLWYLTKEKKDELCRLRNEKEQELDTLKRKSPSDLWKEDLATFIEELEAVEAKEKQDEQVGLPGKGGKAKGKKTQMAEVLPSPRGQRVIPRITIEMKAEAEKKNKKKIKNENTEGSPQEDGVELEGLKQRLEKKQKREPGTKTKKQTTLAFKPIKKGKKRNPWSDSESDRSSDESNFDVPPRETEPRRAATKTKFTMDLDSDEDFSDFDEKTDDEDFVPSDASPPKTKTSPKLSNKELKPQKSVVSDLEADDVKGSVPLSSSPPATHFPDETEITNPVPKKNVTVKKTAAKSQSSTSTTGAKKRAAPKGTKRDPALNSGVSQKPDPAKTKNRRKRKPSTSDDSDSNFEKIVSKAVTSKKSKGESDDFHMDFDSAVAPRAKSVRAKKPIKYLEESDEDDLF
In words: Topoisomerase II activity assay (TOP II-catalyzed relaxation of plasmid DNA). It counts as biochemical. The following applies: primary assay at 25 and/or 50 µM. The protocol: We also performed TOP 11-catalyzed relaxation of plasmid DNA assays(Fig. 5-7) to evaluate if compounds could inhibit TOP II. […] The IC50 value of compounds 7, N7, N8, N14, N15, N18, and N19 were about 10, 10, 1, 10, 5, 1, and 1 µM, respectively (detect by TopoGEN TG2005H, TG-2000H-1).

Regarding `CCN(CC)CCCNc1nc2ccccc2c2c(=O)c3cc(Cl)ccc3sc12` [Compound N18, 10-Chloro-6-((3-(diethylamino)propyl)amino)-12H-thiochrome no[2,3-c]quinolin-12-one], the IC50 with DU-145 stood at 3530 ± 1050 nM; with PC-3 it was 2220 ± 210 nM. In addition, the “inhibitory effects in TOP I activity assay compared with CPT” value at TOP I was “more potent inhibitory effects than CPT”. On TOP II, the “inhibitory effects on TOP II compared with the positive agent VP-16” value is given as “more potent inhibitory effects than the positive agent VP-16”.
